From patent US20170007625A1, “NOVEL FORMULATIONS TO INHIBIT CYCLOOXYGENASE AND PRO-INFLAMMATORY CYTOKINE MEDIATED DISEASES” (Bioved Pharmaceuticals, Inc., priority 2008, published 2017)

What was measured:
[1] = system: Adjuvant Arthritis (CFA induced); assay: Adjuvant induced arthritis in rats; format: in vivo
Method: Arthritis or inflammation in the joint was induced by injection of Complete Freund's Adjuvant (CFA) into the left hind footpad of rats (animals). The animals were divided into three groups namely, Control, Ibuprofen and Formulation B. The role of Formulation B on specific cytokine blockade in the etiology of cachexia caused by Adjuvant Arthritis (AA) was evaluated. The parameter considered for the evaluation included paw thickness as a percent of paw thickness at Day 0 and percent body weight gain in animals. FIG. 4 illustrates paw thickness in animals as a percent of the paw thickness at Day 0 during the Adjuvant Induced Arthritis study in animals. Whereas, FIG. 5 illustrates percent body weight gain in animals during the Adjuvant Induced Arthritis study in animals.

[2] = system: DSS induced colitis; assay: Dextran Sodium Sulfate (DSS) induced colitis; format: in vivo; conditions: oral DSS in mice
From the text: Inflammation was induced in mice (animal) using oral administration of DSS.

Row | SMILES | effect on cytokine inhibition ([1]; CFA into left hind footpad) | percent body weight gain (AA-associated weight loss) ([1]; compared to control animals, FIG. 5) | reduction in food intake [2] | body weight loss ([2]; FIG. 13)
1 | CC(C)Cc1ccc(C(C)C(=O)O)cc1 (stereo not shown) [Ibuprofen] | did not show any effect | lost body weight significantly |  | 
2 | O=C(O)c1cc(/N=N/c2ccc(S(=O)(=O)Nc3ccccn3)cc2)ccc1O [Sulfasalazine] |  |  | recovered | improved the body weight loss
